One experiment has as its system Osteoblasts. Briefly: Fixing of calcium by osteoblasts (Example I). It counts as cell-based. The protocol: (§1) More precisely, the process according to the invention consists of preparing a suspension of a human or animal osseous cell line, by adjusting the cellular density determined by turbidimetry or by calculating from a reference value, leaving to incubate for one to three days at 37° C. in the presence of carbon dioxide and of a complete culture medium (CCM), adding to some wells an agent inhibiting the fixing of calcium or a calciotropic hormone, and some extract to be titrated, eliminating the supernatants from the culture, rinsing out the wells with a rinsing medium without calcium or magnesium (P.B.S. for example) in such a way as to eliminate the non-fixed calcium from the culture medium, eliminating the supernatant fractions, and adjusting the volume of the dispersion with a fixed volume of mineral acid such as hydrochloric acid, sulphuric acid, phosphoric acid or perchloric acid or with any other product capable of destroying the extracellular matrix built up by the cells being cultured. […] NT-690.005.
The extracts or powders of the algae Padina pavonica have the effect of stimulating biological activity (synthesis of proteins and glycoaminoglycanes) but also act to restore physiological functions such as the fixing of calcium by osteogenic cells. For this, the fixed calcium is dosed with a fixed cell line, such as for example the cell line UMR 106 or the line G 292, in the presence or not of deleterious agents such as inhibitors of the calcic canals and pro-inflammatory agents such as IL 1. Normal osteoblasts give good results, but their availability presents a problem. The preparation to be analysed is tested in parallel on the same cell line, in the presence or not of these same deleterious agents. The quantity of fixed calcium in relation to that obtained with the calciotropic agent and with those obtained in the presence of agents inhibiting the fixing of calcium are compared.
(§2) The material to be tested is dosed on a cell culture. An analysis is carried out of the calcium fixed by the osseous cells. To do this, the calcium fixed by an osteoblastic cell line is dosed. In a non-limiting way, UMR 106 and G292, in the presence or not of deleterious agents such as the Inh-Ca and the IL-1 may be cited. The preparation to be analysed will also itself be tested, on the same cell line in the presence or not of agents such as Inh-Ca and IL-1.
(§3) For each trial of solution to be titrated, 5 μl of solution of Padina extract is added. It is then left to incubate for the length of time necessary to carry out the trial, normally between 24 and 72 hours, and preferably 48 hours. […]

A further experiment deals with human cell line G292. Briefly: Fixing of calcium by the osteoblast cell line G292. It counts as cell-based. The arrangement: Fixed calcium, Average: unit not given here. To be noted: for Fixing the calcium (fixed calcium): G292, Example I, controls = 1,000. As to the method: as §1, §2
In these same conditions, calcium fixed by the same cell line in the presence of estradiol is dosed and a calibration scale is produced, expressed in weight of estradiol This calibration scale ranges from 10^−3 to 10^−10 mol of estradiol or more frequently between 10^−7 and 10^−9 mol of estradiol. In this way, it is possible to establish a correlation between the activity of the extract of Padina and an active quantity of estradiol. We should stress that this comparison is made between the activity of estradiol directly on the cell culture with the active extract of Padina in the presence of deleterious agents such as an Inh-Ca or IL-1. So it is not a true weight comparison and it is proposed that the result should be expressed in Units of Activity (UA). A unit of activity is defined as the quantity of extract capable of increasing by 50% the quantity of calcium fixed by 400,000 cells cultivated for 48 hours in the presence of 1 ng of interleukin 1 per 1 ml well. The IL-1 can be replaced by another agent inhibiting the fixing of calcium at an equi-active dose.
The extracts of Padina have been described, in particular in the European patent application EP 0.655.250. The algae is then depleted after drying, by a hydrocarbonated solvent such as cyclohexane or acetone, the vegetable matter is separated, and the extracted product is filtered then evaporated until dry. A quantity of dry extract weighed precisely is then dissolved in ethanol. Determining its activity is the object of the present invention. In concrete terms, the process according to the invention consists of preparing a suspension of culture of the human cell line G292 (ECAC no. 901-110522), adjusting the cell density to 400,000 cells per ml of complete culture medium (CCM), supplemented by 10% of fetal calf serum. The cell suspension is distributed at the rate of 1 ml per well on plates of 24 wells. It is left to incubate overnight in an atmosphere of CO2 at 37°. The supernatants are separated then dilution is carried out by a new addition of CCM. An aliquot fraction of IL-1 is prepared and 5 μl of interleukin IL1 solution is added, namely 1 ng per well in the wells for the cells which receive only one inhibiting treatment per IL-1.
as §3

The mark [1] stands for this setting: agent in the presence of IL-1, controls = 1,000.
[2] abbreviates: calcic inhibitor alone, 10 μg, control 1.194.

Here are results for four compounds from patent US7122337B2, “Method for determining calciotropic activity of a preparation of Padina pavonic algae” (Texinfine SA, priority 2001, dated 2006).

As to `C[C@]12CC[C@@H]3c4ccc(O)cc4CC[C@H]3[C@@H]1CC[C@@H]2O` [Est, Estradiol], the “Fixing the calcium (fixed calcium)” value was 1,843 in the experiment on Osteoblasts (agent alone, controls = 1,000); 0,200 in the experiment on Osteoblasts (setting [1]); 2,648 in the experiment on human cell line G292 (agent alone); 0,070 in the experiment with human cell line G292 (agent in the presence of IL-1). For the same compound, the “Fixed calcium, Average” value is given as 1.151 with human cell line G292 (Estradiol 10^−7 alone, control 1.194); 1.115 in the experiment on human cell line G292 (Estradiol 10^−8 alone, control 1.194); 0.706 in the experiment on human cell line G292 (Estradiol 10^−9 alone, control 1.194); 0.357 with human cell line G292 (Estradiol + Cinchonine, control 1.194, Cinchonine 0.059); 0.357 with human cell line G292 (Estradiol + IL-1, control 1.194, IL-1 0.315); 0.373 in the experiment with human cell line G292 (Estradiol + Verapamil, control 1.194, Verap 0.383).
In the case of `C=C1CC[C@H](O)C/C1=C/C=C1\CCC[C@]2(C)[C@@H]([C@H](C)CCCC(C)C)CC[C@@H]12` [D3, Vitamin D3], the “Fixing the calcium (fixed calcium)” value is recorded as 1,215 with Osteoblasts (agent alone, controls = 1,000); 0,125 with Osteoblasts (setting [1]); 1,540 in the experiment on human cell line G292 (agent alone); 0,070 with human cell line G292 (agent in the presence of IL-1).
Regarding `C=C[C@H]1C[N@@]2CC[C@H]1C[C@@H]2[C@@H](O)c1ccnc2ccccc12` [Cinchonine], the “Fixed calcium, Average” value with human cell line G292 (setting [2]) was 0.059.
The same measure, in the same setting: then `COc1ccc(CCN(C)CCCC(C#N)(c2ccc(OC)c(OC)c2)C(C)C)cc1OC` (stereo not shown) [Verap, Verapamil], with 0.383.
